Measured values published in a melting point compilation (Tetko et al.; mined from patent text by program, amines drawn as free bases though some values may be those of a salt).

melting point [°C]	SMILES
108 to 109	C(=C\c1nc(COc2ccc(CCCn3cccc3)cc2)co1)/c1ccccc1
201	Cc1cc(C)cc(C(=O)N2CCC(Nc3nc4ccccc4n3Cc3cccs3)CC2Cc2ccccc2)c1 (stereo unspecified)
180 to 183	CN(C)C(=O)Cn1c(-c2ccc(F)cc2)nc2cccnc21
43 to 46	C[Si](C)(C)c1cc(C(F)(F)F)ccc1OC1CCCCO1 (stereo unspecified)
84 to 85	Cc1ccc2c(c1)c1c(n2C)CC(C(=O)O)CC1 (stereo unspecified)
98	CC(OC(=O)C1CC(=O)c2cc(F)ccc2O1)c1ccccc1 (single isomer, unassigned; (+))
147 to 149	O=C(O)c1cn(CCO)nc1[N+](=O)[O-]
129 to 131	Cc1nc2cc(Cl)ccc2c2ccccc12
220	CCC1c2c(ncn2C)CCN1C(=O)NC(C)C (stereo unspecified)
68 to 69	CCN(CC)CC(=C1NCCCS1)[N+](=O)[O-]
97 to 99	C=Cc1ccc(CSCCNC(=S)CCC(=O)O)cc1
163 to 164	N#Cc1ccccc1-c1ccc(CNC(=S)NN)cc1
133 to 135	COc1cccc(N(CCN2CCC(C(=O)c3ccc(F)cc3)CC2)C(=O)c2ccc([N+](=O)[O-])cc2)c1
187 to 189	COc1c(N2C[C@H](N)[C@H]3OCC[C@H]32)c(F)cc2c(=O)c(C(=O)O)cn(C3CC3)c12 (relative stereo)
195 to 197	CC(C)Oc1nc(N)nc2c1ncn2C1CC(N=[N+]=[N-])C(CO)O1 (stereo unspecified)
257 to 260	Cc1ccc(C(=O)NN2CCOCC2)c(Nc2ccc3[nH]ncc3c2)n1
82 to 84	CCC(=O)C(CCCCCCOc1ccc(OCc2ccccc2)cc1)C(=O)CC
79 to 82	COC(=O)/C=C/C(=O)O[C@@H](C)C(=O)N1CCOCC1
73 to 75	CCCCCCCCCCCCCCCCCCNC(=O)OCC(CO)NC(=O)OC(C)(C)C (stereo unspecified)
39 to 41	Cc1c(Oc2ccccc2)cccc1Oc1ccccc1
119	Cc1ccnc(N2C(=S)SCC2(C)O)c1 (stereo unspecified)
83	CC(C)(C)OC(=O)[C@@H]1CC[C@@H]2CN1C(=O)N2OCc1ccccc1
155 to 156	CCOC(=O)c1c(-c2ccc(Cl)c(Cl)c2)csc1N1C(=O)c2ccccc2C1=O
229 to 231	COc1ccccc1[C@H](c1cccc2ccccc12)[C@@](C)(C#N)C(=O)N1CC=C(c2c[nH]c3ccccc23)CC1
97 to 98	CC(C)=CCON1C(=O)c2ccccc2C1=O

melting point [°C]	SMILES
206 to 209	O=C(O)c1ccc(COCc2csc3nc(C(=O)NCc4ccnc(OCCCc5nc[nH]n5)c4)[nH]c(=O)c23)cc1
172 to 174	CC(C)(C)c1ccc(-c2ccc(C(=O)CCC(=O)O)cc2)cc1
142 to 144	NC1CCN(C2c3ccccc3COc3ccc(Br)cc32)CC1 (stereo unspecified)
203 to 205	O=C(Nc1ccc(CP(=O)(O)O)cc1)C1=Cc2cc(C3CCCCC3)ccc2CC1
139 to 141	Cn1c(C(F)(F)F)cc(=O)n(-c2c(F)cc(Cl)c3oc(CO)cc23)c1=O
155 to 156	CCOc1nn(-c2ccc(C(F)(F)F)cn2)cc1CCOc1cc(CCC(=O)O)n(-c2ccccc2)n1
236 to 242	CCNc1nc(-n2cc(C(=O)O)c(=O)c3cc(F)c(F)c(Cl)c32)c(F)cc1F
72.5 to 74.5	COC(=O)C(=O)c1nccn1Cc1cccs1
147 to 148	CCOP(=O)(/C=C/c1cn(-c2ccccc2)nc1OCc1ccc(OCc2nc(-c3cccc(C#N)c3)oc2C)c(OC)c1)OCC
73 to 76	CCCOc1ccc(-c2scc(-c3ccccc3Cl)c2CC(=O)NC(=N)NCCCO)cc1C
83 to 85	COC(=O)[C@H](Cc1ccc(-c2ccccc2)cc1)NC(=O)OC(C)(C)C
174 to 176	N#Cc1cccc(NC(=O)n2ccnc2)c1
153 to 154	Cc1cc(C(C)C(=O)O)n(C)c1C(=O)c1ccc(Cl)cc1 (stereo unspecified)
78 to 80	C=CCn1cc(Cc2ccc(C(=O)O)cc2OC)c2cc(CC(=O)NCCCC)ccc21
110 to 113	Cn1ccnc1Sc1ccc(Nc2c(C#N)cnc3cc(-c4csc(CN5CCOCC5)c4)ccc23)cc1Cl
152 to 155	COc1ccc(OCc2c(C)cncc2C)c2[nH]c(C3CC3)nc12
220	CC(=O)OCC1=C(C(=O)O)N2C(=O)C(NC(=O)Cn3ccnc3S(C)=O)C2SC1 (stereo unspecified)
72 to 74	OCc1cc2occc2cn1
189 to 190	CC(C)(C)OC(=O)NC(Cc1ccccc1)C(=O)Nc1nc(CC(=O)O)cs1 (stereo unspecified)
195 to 197	CC(C)[C@H](NC(=O)N(C)Cc1nccs1)C(=O)N[C@@H](Cc1ccccc1)C[C@H](O)[C@H](Cc1ccccc1)NC(=O)[C@@H](NC(=O)N(C)Cc1nccs1)C(C)C
140 to 142	O=C(O)c1ccc(F)s1
113 to 114	Cn1nnnc1CC(O)(c1ccccc1)c1ccc(F)cc1 (stereo unspecified)
193 to 194	COc1ccc(C(=O)CN(C)C(=O)/C=C/c2cccnc2)cc1OC
105 to 107	CC(=O)OC(c1ccccc1S(N)(=O)=O)C(C)F (stereo unspecified)
172 to 175	O=S(=O)(Nc1ccc2ccc(OCc3ccc4ccccc4n3)cc2c1)C(F)(F)F

melting point [°C]	SMILES
111 to 113	ClC(Cl)=Cc1sc(-c2ccccc2)cc1-c1ccccc1
155 to 157	O=c1oc2cc(Br)ccc2c(O)c1[N+](=O)[O-]
99 to 100	C[C@H](C#Cc1sccc1Cc1ccc(F)cc1)N(O)C(N)=O
202 to 204	COc1cc(OC)cc(-c2ncn(CCO)c2-c2ccc(OC)c(F)c2)c1
118 to 119	CCOC(CNC(=S)Nc1nccs1)OCC
130 to 131	CC1CCCN1CCCN1CCN(C2CCN(Cc3ccccc3)CC2)C1=C(C#N)C#N (stereo unspecified)
134 to 135	N#Cc1cc(C(=O)NNC(=O)c2occc2-c2ccccc2Oc2ccccc2)ccc1O
285 to 287	Cc1ccc2cccnc2c1C(=O)Nc1nnn[nH]1
100 to 101	C#Cc1ccc(OC)c(C#N)c1
249 to 250	CC(C)(C)c1ccc(C(=O)Nc2cn3cc(CO)ccc3n2)cc1
198 to 199	O=C(O)C12CC3(F)CC(F)(CC(F)(C3)C1)C2
85 to 90	N#CC=C(N)c1ccc2ccccc2c1
225 to 227	NCc1ccc(C2CCN(c3c(F)c(N)c4c(=O)c(C(=O)O)cn(C5CC5)c4c3F)C2)cc1 (stereo unspecified)
232 to 235	CC(C)Cc1c2c(nn1Cc1ccccc1)c(N)nc1ncccc12
219 to 220	Cc1ccc2[nH]c3c(c2c1)CCNC3(C(=O)OC(C)(C)C)C1(NC(=O)OCc2ccccc2)CCC1 (stereo unspecified)
226 to 227	O=C(O)c1cn(C2CC2)c2c(F)c(N3CCC4(C3)OCCCO4)c(F)cc2c1=O
208 to 210	Cc1cc2c(cc1C)C(=O)C(Nc1ccccc1)=CC2=O
118 to 121	Cc1ccc(C(=O)c2ccc(CC#N)n2C)s1
136 to 140	Cc1ccc(C2(Cl)c3ccccc3C(=O)c3ccccc32)cc1
173 to 177	OCc1cn(-c2ccc(-c3ccccc3)cc2)cn1
102	Cc1ccc(CC2(O)CCN(CCOC(=O)c3ccc(OCc4ccccc4)cc3)CC2)cc1
73 to 75	CCOC(=O)C(C)C(=O)Nc1cccc(S)c1 (stereo unspecified)
110	CCCCCCOc1ccc(-c2nccc(-c3cccc(F)c3F)n2)cn1
184 to 185	COCC1=Nc2ccccc2C(=O)C1
56 to 57	CCCCOc1c(NC(C)(C)CC)c(=O)c1=O

melting point [°C]	SMILES
> 253	Cc1nc2c(N)nc3ccccc3c2n1CCC1(O)CCOCC1
156 to 158	O=CC=CC=CC=CC=Cc1ccsc1
104 to 105	CCCC1=C(c2ccccc2)[C@@H](c2ccccc2)OC1=O
143 to 145	COc1cc2c(cc1Cl)C(O)Cc1ccc(F)cc1S2 (stereo unspecified)
172 to 174	COc1cc(C(C)=O)ccc1OCCCN1CCN(c2csc3cc(F)ccc23)CC1
355 to 358	Cc1nc2cc(-c3cccc(C=C4SC(=O)NC4=O)c3)cc(C34CC5CC(CC(C5)C3)C4)c2o1
208 to 209	O=c1c(-c2ccccc2)c(CSc2ncnc3[nH]cnc23)oc2ccccc12
144 to 146	CCn1cc(C(=O)O)c(=O)c2cc(F)c(N3CCNC(COC(C)C)C3)cc21 (stereo unspecified)
205 to 207	CN1C(=O)C(NC(=O)CC2CCCCC2)N=C(N2CCCCCC2)c2ccccc21 (stereo unspecified)
149 to 151	C/C(=C\c1ccc(OCC(=O)O)cc1)[N+](=O)[O-]
149 to 155	CC(C)N=CCCC1(C(N)=O)c2ccccc2-c2ccccc21
122 to 126	CC(C)(C)OC(=O)NCCCc1ccccc1C=CC(=O)O
37 to 38	CSc1nc(C)cc(Cl)n1
181 to 183	N#Cc1ccc2c(c1)OCC21C(=O)N(Cc2ccc3c(c2)OCCO3)c2ccccc21 (stereo unspecified)
154 to 156	CCOC(=O)C(=O)Nc1nc(CN2CCN(C(c3ccccc3)c3ccccc3)CC2)c(Cl)s1
119 to 120	CCOC(=O)C1=C(C(F)(F)F)Nc2n[nH]cc2C1c1cccc2ccccc12 (stereo unspecified)
119	Cc1cc(O)c(S(=O)C(C)(C)C)c(=O)o1 (stereo unspecified)
110 to 112	O=c1ccn(CCO)c(C(O)c2ccc3ccccc3c2)c1OCc1ccccc1 (stereo unspecified)
187 to 189	COC(=O)[C@H](O)[C@@H](NS(=O)(=O)c1ccc([N+](=O)[O-])cc1)c1ccccc1
76 to 78	O=[N+]([O-])c1ccc2c(c1)CCN(Cc1ccccc1)C2
128 to 132	O=Cc1c2ccccc2cc2oc3ccccc3c12
295	O=c1cc2c(n[nH]1)-c1ccccc1C2
141 to 145	CS(=O)(=O)c1ccc(-c2sc(Br)cc2-c2ccc(F)cc2)cc1
62 to 64	CN1CC2CC1CN2C1=Nc2cc(Cl)ccc2Sc2ccccc21 (stereo unspecified)

SMILES	melting point [°C]
CN1CCC(OC(=O)COC(=O)c2ccccc2Nc2ccnc3c(C(F)(F)F)cccc23)(c2ccccc2)CC1	144 to 145
O=C1CCN(C(=O)C(F)(F)F)CC1	68
